Test results as given in patent US20230414826A1, “FIBRIN HYDROGELS” (Mayo Foundation for Medical Education and Research, priority 2020, published 2023).
Converted amounts (≈) assume the structure as drawn.

Key:
[1] = target: T1, fibrin gels (40 mg/mL fibrinogen, 33 U/mL thrombin) (Homo sapiens, UniProt P02671+P02675+P02679); assay: Rheometry gelation time, polymerization time and shear modulus, higher fibrinogen concentration fibrin gels; type: biochemical; settings: 0.12% w/v dye, n=3; for final shear modulus (g′): strain sweep after 2 hour time sweep
T1 construct: purchased Ethicon (Evicel)
T1 sequence (P02671 20-644 isoform P02671-2 limits assumed): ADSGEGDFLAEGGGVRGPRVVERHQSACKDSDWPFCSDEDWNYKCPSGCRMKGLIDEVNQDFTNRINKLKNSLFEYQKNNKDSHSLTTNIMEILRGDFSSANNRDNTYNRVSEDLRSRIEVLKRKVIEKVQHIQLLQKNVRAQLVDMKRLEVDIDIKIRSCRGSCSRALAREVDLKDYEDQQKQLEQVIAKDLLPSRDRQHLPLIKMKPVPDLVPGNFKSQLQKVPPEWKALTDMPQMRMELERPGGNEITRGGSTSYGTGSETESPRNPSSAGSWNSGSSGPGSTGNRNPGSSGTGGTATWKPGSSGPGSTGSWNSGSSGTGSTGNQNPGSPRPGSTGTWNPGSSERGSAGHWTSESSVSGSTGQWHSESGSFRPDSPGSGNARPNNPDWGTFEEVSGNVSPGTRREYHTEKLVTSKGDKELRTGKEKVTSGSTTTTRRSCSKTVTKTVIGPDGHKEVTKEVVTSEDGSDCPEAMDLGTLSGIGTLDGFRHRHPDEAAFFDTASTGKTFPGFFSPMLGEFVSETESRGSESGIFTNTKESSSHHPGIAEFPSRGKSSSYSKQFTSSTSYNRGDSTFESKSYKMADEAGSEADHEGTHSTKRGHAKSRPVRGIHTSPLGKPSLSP
T1 sequence (P02675 45-491 limits assumed): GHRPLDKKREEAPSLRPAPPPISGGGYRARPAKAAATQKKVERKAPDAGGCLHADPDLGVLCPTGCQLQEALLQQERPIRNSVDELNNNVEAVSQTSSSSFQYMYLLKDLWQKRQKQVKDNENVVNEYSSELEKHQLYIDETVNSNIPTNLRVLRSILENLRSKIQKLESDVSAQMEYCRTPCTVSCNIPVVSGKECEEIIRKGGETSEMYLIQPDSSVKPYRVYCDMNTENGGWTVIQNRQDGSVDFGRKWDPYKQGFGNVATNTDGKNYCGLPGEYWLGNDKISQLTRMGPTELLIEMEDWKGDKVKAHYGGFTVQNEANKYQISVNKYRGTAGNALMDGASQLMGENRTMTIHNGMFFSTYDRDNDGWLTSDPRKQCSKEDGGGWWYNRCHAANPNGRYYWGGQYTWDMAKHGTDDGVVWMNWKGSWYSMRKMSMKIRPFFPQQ
T1 sequence (P02679 27-437 isoform P02679-2 limits assumed): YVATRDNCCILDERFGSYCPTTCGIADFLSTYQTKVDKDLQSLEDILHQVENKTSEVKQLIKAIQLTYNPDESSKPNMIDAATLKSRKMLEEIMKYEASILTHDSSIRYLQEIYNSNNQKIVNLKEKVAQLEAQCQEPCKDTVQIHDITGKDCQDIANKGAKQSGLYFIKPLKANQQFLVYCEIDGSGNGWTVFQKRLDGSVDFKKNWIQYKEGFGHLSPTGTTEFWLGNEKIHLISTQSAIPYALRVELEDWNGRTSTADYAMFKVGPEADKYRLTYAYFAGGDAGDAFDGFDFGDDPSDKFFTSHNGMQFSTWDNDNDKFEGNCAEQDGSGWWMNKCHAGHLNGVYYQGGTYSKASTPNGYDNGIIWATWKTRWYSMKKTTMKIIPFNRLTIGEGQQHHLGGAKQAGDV
Protocol: The viscoelastic mechanical properties of fibrin gels were characterized using oscillatory shear rheology on a Discovery Hybrid Rheometer 2 (TA Instruments; New Castle, DE) with a 20 mm cone-and-plate geometry at a 1° angle and a 20 mm stage. Inertia, friction, and rotational mapping calibrations were performed prior to each experiment. A Peltier temperature-controlled stage maintained 37° C. and a solvent trap was used to control evaporation during experiments lasting longer than 20 minutes. Gels were prepared by mixing specified concentrations of fibrinogen, dye, and thrombin on the stage. Immediately after combining, the geometry head was lowered to 500 μm (˜1-3 seconds) before beginning the first experiment. Gelation kinetics were monitored in time sweeps at 1% strain and 10 rad/s angular frequency. Strain sweeps were measured from 0.01-1000% strain at 1 Hz frequency. A frequency sweeps measured from 0.01-3 Hz at 1% strain was used to confirmed fibrin independence of frequency.
To determine the final polymerization time and resultant shear modulus, a final concentration of 40 mg/mL fibrinogen, 33 U/mL thrombin, and 0.12% w/v dye was used to simulate fibrin scaffold parameters described elsewhere (see, e.g., Gandhi et al., 2018 Acta Biomater., 67:134-46). A time sweep was performed for 2 hours, and the strain sweep was measured following the time sweep to confirm final polymerization had occurred. The shear modulus was determined by averaging values within the linear region of the strain sweep (between 0.01% and 0.5% strain). A 95% confidence interval was defined for the final shear modulus and the lower range value was used as the threshold to determine the final polymerization time.
With confirming that both TB and EB, but not PEG, cause a substantial increase in gelation time, polymerization time was measured. The polymerization time is the total time for the hydrogel to fully form with no remaining soluble fibrin monomer. Functionally, this is defined as the point at which the shear modulus no longer changes. Quantitatively, this is defined at the point at which the g′ reaches its maximum and plateaus over time.
To test if the inclusion of TB and EB would alter the polymerization time, the previous rheometry setup was used over a longer range of time. Unfortunately, evaporative effects were detected as early as 2 hours. […] The surface was sticky, and the presence of non-cross-linked fibrin was evident. To measure polymerization time reliably, the fibrinogen and thrombin concentrations were increased. A 40 mg/mL fibrinogen and 33 U/mL thrombin final concentration is capable of fully polymerizing within 2 hours (see, e.g., Gandhi et al., Acta Biomater., 67:134-46 (2018)). As such, the rheometry experiment were repeated at these concentrations. A final concentration of 0.12% w/v for TB, EB and PEG was used.
Both PBS and PEG groups show g′ values greater than g″ values at the first detectable time point (12 seconds), showing that both groups had already past the initial gelation time. TB and EB show a delay in gelation but appear to quickly approach the PBS and PEG groups. Near the 1000 sec mark, all four groups appear to show a similar growth of g′ overtime. A strain sweep was measured at the end of the time sweep to confirm that the gel had completed polymerization within the 2 hour time frame. Shear modulus values from the linear portion of the strain sweep were verified with rheological data described elsewhere (see, e.g., Wedgwood et al., Macromolecular Symposia, 334:117-25 (2013); and Moreno-Arotzena et al., Materials (Basel), 8:1636-51 (2015)), and used to determine the final gel shear modulus. Using this shear modulus value, the polymerization time for each sample was calculated. The polymerization times for PBS, TB, EB, and PEG groups were 97.0±14.9, 94.6±8.3, 106.2±10.7, 93.8±17.0 minutes (n=3, p=0.654) (FIG. 8B).

[2] = Solubility point in citrate buffer; type: physicochemical; settings: aqueous buffer; 1× citrate buffer (20 mM sodium citrate, 100 mM sodium chloride pH 7.4)

Row | Structure (SMILES) | gelation time [1] | polymerization time [1] | final shear modulus (g′) [1] | solubility [2]
1 | Cc1cc(-c2ccc(/N=N/c3ccc4c(S(=O)(=O)O)cc(S(=O)(=O)O)c(N)c4c3O)c(C)c2)ccc1/N=N/c1ccc2c(S(=O)(=O)O)cc(S(=O)(=O)O)c(N)c2c1O [EB, Evans Blue] | 89.6 ± 17.9 s | 106.2 ± 10.7 min | 2077±441 Pa | –
2 | Cc1cc(-c2ccc(/N=N/c3c(S(=O)(=O)O)cc4cc(S(=O)(=O)O)cc(N)c4c3O)c(C)c2)ccc1/N=N/c1c(S(=O)(=O)O)cc2cc(S(=O)(=O)O)cc(N)c2c1O [TB, Trypan Blue] | 42.4 ± 19.4 s | 94.6 ± 8.3 min | 2197±221 Pa | 4.58 mM (≈ 4000 µg/mL)
